According to patent publication US20140162875A1, “N-Thio-Anthranilamide Compounds and Their Use as Pesticides” (BASF SE, priority 2011, published 2014):

Experiments:
Format in all cases: in vivo
[1] = tested on: Silverleaf Whitefly (Bemisia Argentifolii); experiment: Silverleaf whitefly cotton plant spray test; details: 300 ppm; whitefly adults on sprayed cotton plants; 3 days after treatment
Text: (§1) The active compounds were formulated in cyclohexanone as a 10,000 ppm solution supplied in tubes. The tubes were inserted into an automated electrostatic sprayer equipped with an atomizing nozzle and they served as stock solutions for which lower dilutions were made in 50% acetone:50% water (v/v). A nonionic surfactant (Kinetic®) was included in the solution at a volume of 0.01% (v/v).
Cotton plants at the cotyledon stage (one plant per pot) were sprayed by an automated electrostatic plant sprayer equipped with an atomizing spray nozzle. The plants were dried in the sprayer fume hood and then removed from the sprayer. Each pot was placed into a plastic cup and about 10 to 12 whitefly adults (approximately 3-5 days old) were introduced. The insects were collected using an aspirator and a nontoxic Tygon® tubing connected to a barrier pipette tip. The tip, containing the collected insects, was then gently inserted into the soil containing the treated plant, allowing insects to crawl out of the tip to reach the foliage for feeding. Cups were covered with a reusable screened lid. Test plants were maintained in a growth room at about 25° C. and about 20-40% relative humidity for 3 days, avoiding direct exposure to fluorescent light (24 hour photoperiod) to prevent trapping of heat inside the cup. Mortality was assessed 3 days after treatment, compared to untreated control plants.

[2] = tested on: Cowpea Aphid (Aphis Craccivora); experiment: Cowpea aphid spray test on potted cowpea plants; details: sprayed cowpea plants, assessed after 72 hours, read-out: mortality in comparison with untreated controls
Procedure: (§2) The active compound was dissolved at the desired concentration in a mixture of 1:1 (vol:vol) distilled water:acetone. Surfactant (Alkamuls® EL 620) is added at a rate of 0.1% (vol/vol). The test solution was prepared at the day of use.
Potted cowpea plants were colonized with approximately 50-100 aphids of various stages by manually transferring a leaf tissue cut from infested plant 24 hours before application. Plants were sprayed after the pest population has been recorded. Treated plants were maintained on light carts at about 28° C. Percent mortality was assessed after 72 hours.

[3] = tested on: Diamond Back Moth (Plutella Xylostella); experiment: Diamond back moth cabbage leaf dip test; details: foliar, dipped cabbage leaves, 3rd instar larvae, 72 hours after treatment, read-out: mortality in comparison with untreated controls
Procedure: as §2
Leaves of cabbage were dipped in test solution and air-dried. Treated leaves were placed in petri dishes lined with moist filter paper and inoculated with ten 3rd instar larvae. Mortality was recorded 72 hours after treatment. Feeding damages were also recorded using a scale of 0-100%.

[4] = tested on: Mediterranean fruitfly (Ceratitis capitata); experiment: Mediterranean fruitfly microtiter plate insect diet test; details: 120 h, egg and larval mortality after 5 days, read-out: mortality in comparison with untreated controls
Procedure: For evaluating control of Mediterranean fruitfly (Ceratitis capitata) the test unit consisted of microtiter plates containing an insect diet and 50-80 C. capitata eggs.
(§3) The compounds were formulated using a solution containing 75% v/v water and 25% v/v DMSO. Different concentrations of formulated compounds were sprayed onto the insect diet at 5 μl, using a custom built micro atomizer, at two replications.
After application, microtiter plates were incubated at about 28±1° C. and about 80±5% relative humidity for 5 days. Egg and larval mortality was then visually assessed.

[5] = tested on: Orchid Thrips (Dichromothrips Corbetti); experiment: Orchid thrips floral-immersion test; details: adult thrips on dipped orchid flowers, 72 hours after treatment, read-out: mortality in comparison with untreated controls
Procedure: Dichromothrips corbetti adults used for bioassay are obtained from a colony maintained continuously under laboratory conditions. For testing purposes, the test compound was diluted in a 1:1 mixture of acetone:water (vol:vol), plus 0.01% vol/vol Alkamuls® EL 620 surfactant.
Thrips potency of each compound was evaluated by using a floral-immersion technique. Plastic petri dishes were used as test arenas. All petals of individual, intact orchid flowers are dipped into treatment solution and allowed to dry. Treated flowers were placed into individual petri dishes along with −about 20 adult thrips. The petri dishes were then covered with lids. All test arenas were held under continuous light and a temperature of about 28° C. for duration of the assay. After 3 days, the numbers of live thrips were counted on each flower, and along inner walls of each petri dish. The percent mortality was recorded 72 hours after treatment.

[6] = tested on: Southern Armyworm (Spodoptera Eridania); experiment: Southern armyworm lima bean plant spray test; details: 96 h, larvae on sprayed lima bean plants, 4 days after treatment, read-out: mortality in comparison with untreated controls
Procedure: as §1
(§4) Lima bean plants (variety Sieva) were grown 2 plants to a pot and selected for treatment at the 1st true leaf stage. Test solutions were sprayed onto the foliage by an automated electrostatic plant sprayer equipped with an atomizing spray nozzle. The plants were dried in the sprayer fume hood and then removed from the sprayer. Each pot was placed into perforated plastic bags with a zip closure. About 10 to 11 armyworm larvae were placed into the bag and the bags zipped closed. Test plants were maintained in a growth room at about 25° C. and about 20-40% relative humidity for 4 days, avoiding direct exposure to fluorescent light (24 hour photoperiod) to prevent trapping of heat inside the bags. Mortality and reduced feeding were assessed 4 days after treatment, compared to untreated control plants.

[7] = tested on: vetch aphid (Megoura viciae); experiment: Vetch aphid broad bean leaf disk microtiter test; details: foliar, 120 h, adult aphids on broad bean leaf disks, 5 days, read-out: mortality in comparison with untreated controls
Procedure: For evaluating control of vetch aphid (Megoura viciae) through contact or systemic means the test unit consisted of 24-well-microtiter plates containing broad bean leaf disks.
The compounds were formulated using a solution containing 75% v/v water and 25% v/v DMSO. Different concentrations of formulated compounds were sprayed onto the leaf disks at 2.5 μl, using a custom built micro atomizer, at two replications.
After application, the leaf disks were air-dried and 5-8 adult aphids placed on the leaf disks inside the microtiter plate wells. The aphids were then allowed to suck on the treated leaf disks and incubated at about 23±1° C. and about 50±5% relative humidity for 5 days. Aphid mortality and fecundity was then visually assessed.

[8] = tested on: Tobacco Budworm (Heliothis Virescens); experiment: Tobacco budworm cotton plant spray test; details: 96 h, larvae on sprayed cotton plants, 4 days after treatment, read-out: mortality in comparison with untreated controls
Procedure: as §1
as §4, with “Cotton” for “Lima bean”, “plants” for “plants (variety Sieva)”, “cotyledon” for “1st true leaf”, “budworm” for “armyworm”

[9] = tested on: boll weevil (Anthonomus grandis); experiment: Boll weevil microtiter plate insect diet test; details: 120 h, egg and larval mortality after 5 days, read-out: mortality in comparison with untreated controls
Procedure: For evaluating control of boll weevil (Anthonomus grandis) the test unit consisted of 96-well-microtiter plates containing an insect diet and 5-10 A. grandis eggs.
as §3
After application, microtiter plates were incubated at about 25±1° C. and about 75±5% relative humidity for 5 days. Egg and larval mortality was then visually assessed.

[10] = tested on: Colorado Potato Beetle (Leptinotarsa Decemlineata); experiment: Colorado potato beetle eggplant foliage spray test; details: foliar, 96 h, beetle larvae on sprayed eggplant foliage, 4 days after treatment, read-out: mortality in comparison with untreated controls
Procedure: as §1
Eggplants were grown 2 plants to a pot and were selected for treatment at the 1st true leaf stage. Test solutions were sprayed onto the foliage by an automated electrostatic plant sprayer equipped with an atomizing spray nozzle. The plants were dried in the sprayer fume hood and then removed from the sprayer. The treated foliage was then cut and removed from the pot and placed in a Petri dish lined with moistened filter paper. Five beetle larvae were introduced into each Petri dish and the dish was covered by a Petri dish lid. Petri dishes were maintained in a growth room at about 25° C. and about 20-40% relative humidity for 4 days, avoiding direct exposure to fluorescent light (24 hour photoperiod) to prevent trapping of heat inside the dishes. Mortality and reduced feeding were assessed 4 days after treatment, compared to untreated control plants.

SMILES	mortality in comparison with untreated controls [1]	mortality at 300 ppm [2]	mortality at 300 ppm [3]	mortality at 2500 ppm [4]	mortality at 300 ppm [5]	mortality at 300 ppm [6]	mortality at 2500 ppm [7]	mortality at 2500 ppm [8]	mortality at 2500 ppm [9]	mortality at 300 ppm [10]
Cc1cc(Cl)cc(C(=O)N=S(C(C)C)C(C)C)c1NC(=O)c1cnn(CC(F)(F)F)c1-c1ncccc1Cl [Compound 1-2]	at least 75%									
Cc1cc(Cl)cc(C(=O)/N=S2/CCSC2)c1NC(=O)c1cnn(CC(F)(F)F)c1-c1ncccc1Cl (stereo not shown) [Compound 1-1, N-[4-chloro-2-((Z)-1,3-dithiolan-1-ylidenecarbamoyl)-6-methyl-phenyl]-5-(3-chloro-2-pyridyl)-1-(2,2,2-trifluoroethyl)pyrazole-4-carboxamide]		≥ 75%	≥ 75%	≥ 75%	≥ 75%	≥ 75%	≥ 75%	≥ 75%	≥ 75%	≥ 75%
